Measurements taken from patent US20050033056A1, “Hydroxylated indole derivatives and uses thereof” (priority 2001, published 2005).

Tests used:
[1] = system: pooled human liver microsomal preparations (HLM); experiment: Compound 1 metabolism / metabolite formation in reconstituted system with pooled HLM; assay type: in vitro ADME; details: estimated by UV absorbance at 270 nm, metabolite formed or Compound 1 left after 1 hour with NADPH
Procedure: (§1) The metabolism of Compound 1 was determined by the disappearance of Compound 1 or the appearance of Compound 1 metabolites in reaction mixtures as compared to respective controls. Compound 1 was incubated in the reconstituted in vitro reaction systems containing pooled human liver S9 fractions, microsomal preparations, or recombinant hepatic CYP forms, including CYP1A2, CYP2C9, CYP2C19, CYP2D6, CYP2E1, and CYP3A4. The reaction mixture (total volume of 250 μL) contained 0.5 mg of liver microsomal protein, 50 or 25 pmol of recombinant CYP, and Compound 1 (50-80 μM) in 50 mM Tris buffer containing 15 mM MgCl2 (pH 7.4). After incubating at 37° C. with gentle shaking for 1 minute, the reaction was initiated by adding 25 μL of NADPH solution (20 mg/mL), and was carried out for 1 hour. The reaction was terminated by quickly cooling the test tube on ice, followed by the addition of an equal volume of 100% methanol. The samples were centrifuged in a desktop centrifuge at 14,000 rpm for 5 minutes, and the supernatants were filtered through syringe filters (13 mm, 0.45 μm). The filtrates were subjected to analysis using LC/MS (ion trap) or LC/MS/MS.
1. […] The detector was monitored at 270 nm, which is the UVmax of Compound 1 predetermined by scanning between 225-400 nm using a photodiode array detector (PDA). […]

[2] = system: primary culture of human hepatocytes; experiment: Morphology of primary human hepatocytes during treatment; assay type: cell-based; details: cells exposed to Compound 1 compared with control cells
Procedure: (§2) Upon receiving a primary culture of human hepatocytes in 6-well plates, the culture medium containing streptomycin/penicillin was refreshed (2 ml/well). […] Compound 1 stock solution was added to the culture medium at a 1:400 ratio (v/v). The culture medium and testing compounds were replenished every 24 hours.

CYP2C19 = CYP2C19 (Homo sapiens, UniProt P33261); experiment: Compound 1 metabolism / metabolite formation by recombinant CYP2C19; assay type: in vitro ADME; parameters: purchased Gentest Corp. (Woburn, Mass.); host or cells: insect cells (microsomal preparation)
Chain of CYP2C19 (P33261 whole entry): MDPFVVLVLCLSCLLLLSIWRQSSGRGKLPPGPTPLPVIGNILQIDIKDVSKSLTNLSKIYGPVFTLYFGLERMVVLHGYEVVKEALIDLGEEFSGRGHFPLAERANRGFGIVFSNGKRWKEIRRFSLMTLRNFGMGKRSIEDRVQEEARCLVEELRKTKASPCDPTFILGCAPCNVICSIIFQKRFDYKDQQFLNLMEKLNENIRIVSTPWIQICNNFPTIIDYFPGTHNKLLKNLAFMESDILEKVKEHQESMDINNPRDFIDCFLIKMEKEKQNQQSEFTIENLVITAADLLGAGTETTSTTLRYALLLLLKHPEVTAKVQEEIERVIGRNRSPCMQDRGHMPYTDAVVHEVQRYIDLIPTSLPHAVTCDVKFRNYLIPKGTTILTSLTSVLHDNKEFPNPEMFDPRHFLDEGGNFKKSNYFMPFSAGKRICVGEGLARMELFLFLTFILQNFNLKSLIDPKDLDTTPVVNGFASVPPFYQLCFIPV
Procedure: as §1
1. LC/MS (LCQ ion trap mass spectrometer, Finnigan Corp., San Jose, Calif.): Hewlett Packard 1100 HPLC system (Waldbronn, Germany) consisted of a binary pump, an autosampler, a column compartment unit, and an online variable wavelength UV detector (VWD). The detector was monitored at 270 nm, which is the UVmax of Compound 1 predetermined by scanning between 225-400 nm using a photodiode array detector (PDA). The metabolites were separated on a Hewlett Packard Eclipse C18 column (150×2.1 mm). The mobile phases were 10 nmM ammonium acetate at pH 4.8 (A) and acetonitrile (B). The gradient (B) was 10% (0-6 minutes), 22% (12-22 minutes), 90% (25-30 minutes), and 10% (31 minutes and after). The flow rate was 0.25 mL/minute. Software Navigator (Version 1.2, Finnigan Corp.) was used to control the HPLC and MS and to acquire the data. The MS was operated at positive electrospray ionization (ESI) with 5.2 kV ionization potential and 220° C. heated capillary temperature. The product ion spectra were generated under 24V collision energy, which was optimized for the fragmentation of Compound 1.
2. LC/MS/MS (SCIEX API2000 triple quadrupole mass spectrometer, PE Biosystem, Foster City, Calif.): The same HPLC system described above was coupled with a tandem mass spectrometer. The metabolites were separated on a Sulpelco Discovery C18 column (150×2.1 mm), and the mobile phase described previously was run at 1.0 mL/min with a 1:10 split. The gradient (B) was 20% (0-6 minutes), 60% (14-18 minutes), 95% (20-24 minutes), and 20% (25 minutes and after). The operation of the HPLC and the MS/MS was controlled by MacChrom (Version 1.6, PE Biosystem). […]

5-HT1A receptor = target: T1, 5-HT1A receptor (Homo sapiens, UniProt P08908); details: background statement, see WO 98/43956 and EP 0 976 732 A1; cited from earlier work
T1 sequence (P08908 1-422): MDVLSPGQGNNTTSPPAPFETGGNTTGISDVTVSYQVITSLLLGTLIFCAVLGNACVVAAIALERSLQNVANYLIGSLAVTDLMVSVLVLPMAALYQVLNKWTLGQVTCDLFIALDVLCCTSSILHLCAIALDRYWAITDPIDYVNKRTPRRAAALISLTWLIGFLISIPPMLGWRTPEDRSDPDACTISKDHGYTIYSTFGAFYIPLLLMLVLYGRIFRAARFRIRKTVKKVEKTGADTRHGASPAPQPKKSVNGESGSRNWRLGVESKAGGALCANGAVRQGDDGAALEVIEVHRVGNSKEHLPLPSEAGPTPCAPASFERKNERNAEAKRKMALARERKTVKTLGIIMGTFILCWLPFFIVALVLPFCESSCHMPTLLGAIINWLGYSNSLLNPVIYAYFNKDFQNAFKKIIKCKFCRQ

major CYP expression = experiment: CYP induction in primary hepatocyte cultures (summary statement, major CYPs); assay type: cell-based, human; details: 72 hour exposure to 10 or 50 μM; primary hepatocyte cultures from three subjects
Procedure: as §2
At the end of the treatment, the cells were harvested into 1 mL of phosphate-buffered saline (PBS) after washing twice. The cells were precipitated by centrifugation, and were resuspended in PBS (approximately 50 μL). The sample preparation, after mixing with […] of Laemmli buffer (62.5 mM Tris-HCl containing 2% SDS, 25% glycerol, and 0.01% bromophenol, pH 6.8) and being rocked for 2-4 hours, was mixed with 10 μL of 2-mercaptoethanol, and heated at 90° C. for 10 minutes before electrophoresis.
Proteins were resolved in a 12% SDS-PAGE gel using a mini gel apparatus at a constant voltage ([…]) for 70-80 minutes, and transferred onto a polyvinylidene difluoride (PVDF) membrane using a membrane-transferring unit at a constant voltage ([…]) for 60 minutes. The membrane was blocked by 5% non-fat dried milk (NFDM) blotting buffer (PBS containing 0.05% Tween 20) at 4° C. overnight. […] CYP proteins were detected by […] using an X-ray developer.

CNC(=O)Cc1ccc2ccn(C3CCN(CCc4ccccc4F)CC3)c2c1 [Compound 1, N-methyl-[1-[1-(2-fluorophenethyl)piperidine-4-yl]-1H-indol-6-yl] acetamide]
Rel. Amount (%) [1]: 36%
morphologic changes of hepatocytes [2]: marked morphologic changes were not observed
metabolism of Compound 1 by CYP2C19 (in words) (CYP2C19; approximately 50 μM of Compound 1): metabolized
Rel. Amount (%) (CYP2C19; recombinant CYP2C19, estimated by UV absorbance at 270 nm, metabolite formed or Compound 1 left after 1 hour with NADPH): 42%
IC50, binding to 5-HT1A receptor (5-HT1A receptor): low nanomolar
Induction of major CYP expression (immunochemical detection) (major CYP expression): not detected
